These are literature values, as cited in patent US20120328537A1, “Topical wound management formulation” (priority 2011, published 2012).

For this series, the system named is Strep Mutans. The following applies: in particular Strep Mutans, the main bacteria responsible for dental caries.

Consider `OC[C@@H](O)[C@H](O)[C@@H](O)CO` [Xylitol], for which the growth of bacteria result was “inhibit the growth of bacteria”.
